In the supplement of paper PMC11061612:

Legend:
[1] = compound: C1CN(CCC1(C(=O)N[C@@H](CCO)C2=CC=C(C=C2)Cl)N)C3=NC=NC4=C3C=CN4 [Capivasertib]; details: max 10 µM
Summary of the method: (§1)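 In 1536-well plates, cancer cell lines in 7.5 μl DMEM/F12 or RPMI with 10% FBS spent 24 hours at 37°C and 5% CO2 and were then dosed for 72 hours with final DMSO typically 0.2%. Viability was read by CellTiter-Glo 2.0 luminescence and scaled between blank-well and DMSO-well means. The single-agent IC50 was fitted from dose responses using a logistic curve in a non-linear mixed effects model, and that logistic curve had two parameters.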

[2] = compound: C=CCn1c(=O)c2cnc(Nc3ccc(N4CCN(C)CC4)cc3)nc2n1-c1cccc(C(C)(C)O)n1 [AZD1775]; details: max 3 µM
Summary of the method: as §1

[3] = compound: CC(=O)Nc1cccc(-n2c(=O)n(C3CC3)c(=O)c3c(Nc4ccc(I)cc4F)n(C)c(=O)c(C)c32)c1 [Trametinib]; details: max 1 µM
Summary of the method: as §1

[4] = compound: CC(=O)c1c(C)c2cnc(Nc3ccc(N4CCNCC4)cn3)nc2n(C2CCCC2)c1=O [Palbociclib]; details: max 10 µM
Summary of the method: as §1

[5] = compound: CC(C)n1c(=O)n(C)c2cnc3cc(F)c(-c4ccc(OCCCN5CCCCC5)nc4)cc3c21 [AZD1390]; details: max 0.3 µM
Summary of the method: as §1

[6] = compound: CC1(C)CCC(CN2CCN(c3ccc(C(=O)NS(=O)(=O)c4ccc(NCC5CCOCC5)c([N+](=O)[O-])c4)c(Oc4cnc5[nH]ccc5c4)c3)CC2)=C(c2ccc(Cl)cc2)C1 [Venetoclax]; details: max 1 µM
Summary of the method: as §1

[7] = compound: CC1=C(C(=CC=C1)Cl)NC(=O)C2=CN=C(S2)NC3=CC(=NC(=N3)C)N4CCN(CC4)CCO [Dasatinib]; details: max 2 µM
Summary of the method: as §1

[8] = compound: CC1=CN2[C@@H](C1)C=NC3=CC(=C(C=C3C2=O)OC)OCCCCCOC4=C(C=C5C(=C4)N=C[C@@H]6CC(=CN6C5=O)C)OC [SG3199]; details: max 0.001 µM
Summary of the method: as §1

[9] = compound: CCN(CCO)CCCOc1ccc2c(Nc3cc(CC(=O)Nc4cccc(F)c4)[nH]n3)ncnc2c1 [AZD2811]; details: max 1 µM
Summary of the method: as §1

[10] = compound: CCc1c2c(nc3ccc(O)cc13)-c1cc3c(c(=O)n1C2)COC(=O)[C@]3(O)CC [SN-38]; details: max 0.3 µM
Summary of the method: as §1

[11] = compound: CN(C)CCCOc1ccc(-c2ccc3ncc4c(c3c2)n(C2CCOCC2)c(=O)n4C)cn1 [AZD0156]; details: max 3 µM
Summary of the method: as §1

[12] = compound: CN(CC[C@H](CSC1=CC=CC=C1)NC2=C(C=C(C=C2)S(=O)(=O)NC(=O)C3=CC=C(C=C3)N4CCC(CC4)[C@H](C5=CC=CC=C5C6=CC=C(C=C6)Cl)O)S(=O)(=O)C(F)(F)F)CCO [AZD4320]; details: max 1 µM
Summary of the method: as §1

[13] = compound: COc1cc(Nc2ncc3c(n2)-c2ccc(Cl)cc2C(c2c(F)cccc2OC)=NC3)ccc1C(=O)O [Alisertib]; details: max 10 µM
Summary of the method: as §1

[14] = compound: COc1cc2ncnc(Nc3ccc(F)c(Cl)c3)c2cc1OCCCN1CCOCC1 [Gefitinib]; details: max 10 µM
Summary of the method: as §1

[15] = compound: COc1cccc(OCCCN)c1-c1cc(Nc2cnc(C#N)cn2)n[nH]1 [Prexasertib]; details: max 1 µM
Summary of the method: as §1

[16] = compound: COc1cccc2c1C(=O)c1c(O)c3c(c(O)c1C2=O)C[C@@](O)(C(=O)CO)C[C@@H]3O[C@H]1C[C@H](N)[C@H](O)[C@H](C)O1 [Doxorubicin]; details: max 1 µM
Summary of the method: as §1

[17] = compound: COc1nnc2ccc(N3CCC(c4ccc(OCCN5CCN(C)C(=O)[C@H]5C)cc4)CC3)nn12 [AZD5153]; details: max 1 µM
Summary of the method: as §1

[18] = compound: CS(=O)(=O)CCNCc1ccc(-c2ccc3ncnc(Nc4ccc(OCc5cccc(F)c5)c(Cl)c4)c3c2)o1 [Lapatinib]; details: max 10 µM
Summary of the method: as §1

[19] = compound: C[C@@H](Nc1cc(F)cc(F)c1)c1cc(C(=O)N(C)C)cc2c(=O)cc(N3CCOCC3)oc12 [AZD8186]; details: max 3 µM
Summary of the method: as §1

[20] = compound: C[C@@H](Oc1cc(-c2cnn(C3CCNCC3)c2)cnc1N)c1c(Cl)ccc(F)c1Cl [Crizotinib]; details: max 10 µM
Summary of the method: as §1

[21] = compound: C[C@@H](c1ccc2nccn2c1)n1nnc2ncc(-c3cnn(C)c3)nc21 [Savolitinib]; details: max 1 µM
Summary of the method: as §1

[22] = compound: C[C@@H]1COCCN1C2=NC(=NC(=C2)C3(CC3)[S@](=N)(=O)C)C4=C5C=CNC5=NC=C4 [AZD6738]; details: max 10 µM
Summary of the method: as §1

[23] = compound: Cc1c2c(nn1C)CSCc1cc(n(C)n1)CSc1cc(c3ccccc3c1)OCCCc1c(C(=O)O)n(C)c3c-2c(Cl)ccc13 [AZD5991]; details: max 1 µM
Summary of the method: as §1

[24] = compound: Cc1cc2ncnn2cc1Nc1ncc2c(n1)n(C1CCOCC1)c(=O)n2C [AZD7648]; details: max 10 µM
Summary of the method: as §1

[25] = compound: Cc1nc(-c2cn3c(n2)-c2ccc(-c4cnn(C(C)(C)C(N)=O)c4)cc2OCC3)n(C(C)C)n1 [Taselisib]; details: max 10 µM
Summary of the method: as §1

[26] = compound: Cn1cnc2c(F)c(Nc3ccc(Br)cc3Cl)c(C(=O)NOCCO)cc21 [Selumetinib]; details: max 10 µM
Summary of the method: as §1

[27] = compound: NC1(c2ccc(-c3nc4ccn5c(=O)[nH]nc5c4cc3-c3ccccc3)cc2)CCC1 [MK-2206]; details: max 10 µM
Summary of the method: as §1

[28] = compound: O=C(c1cc(Cc2n[nH]c(=O)c3ccccc23)ccc1F)N1CCN(C(=O)C2CC2)CC1 [Olaparib]; details: max 10 µM
Summary of the method: as §1

| Cell Line | IC50, cell viability 72 h [1] | IC50, cell viability 72 h [2] | IC50, cell viability 72 h [3] | IC50, cell viability 72 h [4] | IC50, cell viability 72 h [5] | IC50, cell viability 72 h [6] | IC50, cell viability 72 h [7] | IC50, cell viability 72 h [8] | IC50, cell viability 72 h [9] | IC50, cell viability 72 h [10] | IC50, cell viability 72 h [11] | IC50, cell viability 72 h [12] | IC50, cell viability 72 h [13] | IC50, cell viability 72 h [14] | IC50, cell viability 72 h [15] | IC50, cell viability 72 h [16] | IC50, cell viability 72 h [17] | IC50, cell viability 72 h [18] | IC50, cell viability 72 h [19] | IC50, cell viability 72 h [20] | IC50, cell viability 72 h [21] | IC50, cell viability 72 h [22] | IC50, cell viability 72 h [23] | IC50, cell viability 72 h [24] | IC50, cell viability 72 h [25] | IC50, cell viability 72 h [26] | IC50, cell viability 72 h [27] | IC50, cell viability 72 h [28] |
| --- | --- | --- | --- | --- | --- | --- | --- | --- | --- | --- | --- | --- | --- | --- | --- | --- | --- | --- | --- | --- | --- | --- | --- | --- | --- | --- | --- | --- |
| A101D (Melanoma) | > 10 µM | 0.687 µM | 0.148 µM | > 10 µM | > 0.3 µM | > 1 µM | > 2 µM | > 0.001 µM | > 1 µM | 0.0559 µM | > 3 µM | > 1 µM | 5.36 µM | > 10 µM | 0.181 µM | 0.456 µM | 0.155 µM | > 10 µM | > 3 µM | > 10 µM | > 1 µM | 4.49 µM | 0.198 µM | > 10 µM | 2.71 µM | 3.92 µM | > 10 µM | > 10 µM |
| DMS-53 (Small Cell Lung Carcinoma) | > 10 µM | > 3 µM | > 1 µM | > 10 µM | > 0.3 µM | > 1 µM | > 2 µM | > 0.001 µM | > 1 µM | 0.037 µM | > 3 µM | 0.174 µM | > 10 µM | > 10 µM | > 1 µM | > 1 µM | > 1 µM | > 10 µM | > 3 µM | > 10 µM | > 1 µM | > 10 µM | > 1 µM | > 10 µM | > 10 µM | > 10 µM | > 10 µM | > 10 µM |
| DU-4475 (Breast Carcinoma) | > 10 µM | 0.437 µM | 0.00118 µM | > 10 µM | > 0.3 µM | > 1 µM | > 2 µM | > 0.001 µM | > 1 µM | 0.00193 µM | > 3 µM | 0.0935 µM | 0.543 µM | > 10 µM | 0.0864 µM | 0.0323 µM | 0.21 µM | 6.76 µM | > 3 µM | 3.78 µM | > 1 µM | 1.7 µM | > 1 µM | > 10 µM | > 10 µM | 0.0556 µM | > 10 µM | 5.19 µM |
| HCC1428 (Breast Carcinoma) | > 10 µM | > 3 µM | > 1 µM | > 10 µM | > 0.3 µM | > 1 µM | > 2 µM | > 0.001 µM | > 1 µM | > 0.3 µM | > 3 µM | > 1 µM | > 10 µM | > 10 µM | > 1 µM | > 1 µM | 0.483 µM | > 10 µM | > 3 µM | > 10 µM | > 1 µM | > 10 µM | 0.0677 µM | > 10 µM | > 10 µM | > 10 µM | > 10 µM | > 10 µM |
| JIMT-1 (Breast Carcinoma) | > 10 µM | 1.08 µM | > 1 µM | > 10 µM | > 0.3 µM | > 1 µM | 1.08 µM | > 0.001 µM | > 1 µM | > 0.3 µM | > 3 µM | > 1 µM | > 10 µM | > 10 µM | 0.0851 µM | > 1 µM | > 1 µM | > 10 µM | > 3 µM | > 10 µM | > 1 µM | 5.64 µM | > 1 µM | > 10 µM | 4.29 µM | > 10 µM |  | > 10 µM |
| JVM-2 (B-Cell Non-Hodgkin's Lymphoma) | 1.28 µM | 0.0983 µM | > 1 µM | 1.54 µM | > 0.3 µM | > 1 µM | 0.0446 µM | > 0.001 µM | 0.238 µM | 0.00386 µM | > 3 µM | > 1 µM | 0.203 µM | > 10 µM | 0.0108 µM | 0.0481 µM | 0.0531 µM | 9.87 µM | 0.976 µM | 5.65 µM | > 1 µM | 3.23 µM | > 1 µM | > 10 µM | 0.307 µM | > 10 µM |  | > 10 µM |
| Jurkat (T-Lymphoblastic Leukemia) | 2.61 µM | 1.74 µM | > 1 µM | 7.66 µM | > 0.3 µM | > 1 µM | > 2 µM | > 0.001 µM | > 1 µM | 0.00797 µM | > 3 µM | 0.482 µM | 8.51 µM | > 10 µM | 0.0258 µM | 0.415 µM | 0.21 µM | > 10 µM | > 3 µM | > 10 µM | > 1 µM | 3.55 µM | 0.292 µM | > 10 µM | 5.81 µM | > 10 µM |  | > 10 µM |
